Measured values as given in ChEMBL document CHEMBL1138021, “Isoxazole carboxylic acids as protein tyrosine phosphatase 1B (PTP1B) inhibitors” (Bioorg Med Chem Lett, 2004).
pKi: −log10 of the molar value.

These compounds were tested against T1, Tyrosine-protein phosphatase non-receptor type 2 (Homo sapiens, UniProt P17706) (assay: Binding affinity for T-cell Protein tyrosine phosphatase (TCPTP)).
T1 sequence (P17706 whole entry): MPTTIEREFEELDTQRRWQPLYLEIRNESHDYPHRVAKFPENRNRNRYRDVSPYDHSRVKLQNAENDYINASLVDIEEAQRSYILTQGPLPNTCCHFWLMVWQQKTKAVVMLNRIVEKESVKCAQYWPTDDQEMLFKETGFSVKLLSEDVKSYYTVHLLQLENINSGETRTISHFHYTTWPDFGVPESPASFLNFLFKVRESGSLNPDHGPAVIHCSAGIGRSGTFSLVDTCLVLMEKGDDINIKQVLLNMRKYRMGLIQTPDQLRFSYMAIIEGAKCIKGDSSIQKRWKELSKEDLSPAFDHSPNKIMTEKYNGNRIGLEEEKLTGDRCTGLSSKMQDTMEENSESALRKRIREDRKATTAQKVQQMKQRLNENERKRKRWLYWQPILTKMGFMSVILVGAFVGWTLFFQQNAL
`COC(=O)c1c(O)cccc1OC/C=C/c1cccc(-c2onc(C(=O)O)c2CO)c1` gave a pKi of 4.72.

The compounds below were run against T2, Tyrosine-protein phosphatase non-receptor type 1 (Mus musculus, UniProt P35821) (assay: Binding affinity for mouse protein-tyrosine phosphatase 1B (PTP1B) expressed in COS 7 cells).
T2 sequence (P35821 whole entry): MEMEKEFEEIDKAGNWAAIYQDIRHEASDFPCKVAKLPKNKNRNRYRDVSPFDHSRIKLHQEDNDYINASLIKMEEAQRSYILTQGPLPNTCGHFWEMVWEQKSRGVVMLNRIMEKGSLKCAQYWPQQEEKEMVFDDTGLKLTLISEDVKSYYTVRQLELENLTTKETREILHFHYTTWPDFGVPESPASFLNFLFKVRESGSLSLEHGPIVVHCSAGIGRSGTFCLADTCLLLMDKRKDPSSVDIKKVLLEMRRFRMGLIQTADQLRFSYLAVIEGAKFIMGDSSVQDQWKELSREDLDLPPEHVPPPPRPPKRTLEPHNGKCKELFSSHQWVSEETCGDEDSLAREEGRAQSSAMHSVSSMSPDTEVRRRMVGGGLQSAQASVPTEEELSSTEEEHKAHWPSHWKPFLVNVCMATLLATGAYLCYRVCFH
Format: cell-based
`COC(=O)c1c(O)cccc1OC/C=C/c1cccc(-c2onc(C(=O)O)c2N)c1` was tested, and the pKi was 5.68. Compound `COC(=O)c1c(O)cccc1OC/C=C/c1ccc2c(c1)-c1onc(C(=O)O)c1CC2` has a pKi of 4.94. With `COC(=O)c1c(O)cccc1OCCNc1cccc(-c2cc(C(=O)O)no2)c1` the pKi was 4.22. `COC(=O)c1c(O)cccc1OCC(O)Cc1cccc(-c2cc(C(=O)O)no2)c1` (stereo not drawn) gave a pKi of 3.91. Compound `COC(=O)c1c(O)cccc1OCC(=O)Nc1cccc(-c2cc(C(=O)O)no2)c1` has a pKi of 3.67. `COC(=O)c1c(O)cccc1OCCCc1cccc(-c2cc(C(=O)O)no2)c1` was tested, and the pKi was 4.64. In the case of `COC(=O)c1c(O)cccc1OC/C=C/c1cccc(-c2onc(C(=O)O)c2CO)c1`, the pKi was 6.04.
